Measured values taken from patent EP4624457A1, “I[…] DERIVATIVES, I[…] NEURODEGENERATIVE DISEASES” (Centre National de la Recherche Scientifique, priority 2024, dated 2025).

Key:
[1] = target: T1, human α7 nAChR subtype (Homo sapiens, UniProt P36544); conditions: antagonistic activity, TEVC; value (95% CI); cited from earlier work
T1 construct: expressed in transfected cells; host or cells: Xenopus laevis oocytes injected with mRNA

[2] = target: α4β2 nAChR (Homo sapiens, UniProt P17787+P43681); conditions: antagonistic activity, TEVC; value (95% CI); read-out: nAChR subtype (nM; 95% CI) α4β2 (human); cited from earlier work
Chain of α4β2 nAChR (P43681 29-627): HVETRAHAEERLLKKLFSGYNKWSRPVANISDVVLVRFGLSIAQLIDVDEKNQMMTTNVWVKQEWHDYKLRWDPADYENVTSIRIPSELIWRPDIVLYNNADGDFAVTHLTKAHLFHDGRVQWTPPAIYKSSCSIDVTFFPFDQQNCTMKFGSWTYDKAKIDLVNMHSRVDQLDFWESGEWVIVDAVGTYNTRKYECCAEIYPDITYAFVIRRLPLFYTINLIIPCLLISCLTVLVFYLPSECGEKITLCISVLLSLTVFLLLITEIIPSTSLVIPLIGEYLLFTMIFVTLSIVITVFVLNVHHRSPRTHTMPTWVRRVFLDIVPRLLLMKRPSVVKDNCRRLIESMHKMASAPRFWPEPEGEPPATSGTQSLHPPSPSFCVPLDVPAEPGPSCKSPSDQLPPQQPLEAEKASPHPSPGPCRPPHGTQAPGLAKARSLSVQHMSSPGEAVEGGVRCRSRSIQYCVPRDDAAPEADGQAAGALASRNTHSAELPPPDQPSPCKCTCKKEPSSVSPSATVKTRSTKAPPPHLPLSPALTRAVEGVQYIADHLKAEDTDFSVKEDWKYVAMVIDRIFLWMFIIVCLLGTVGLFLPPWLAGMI
Chain of α4β2 nAChR (P17787 26-502): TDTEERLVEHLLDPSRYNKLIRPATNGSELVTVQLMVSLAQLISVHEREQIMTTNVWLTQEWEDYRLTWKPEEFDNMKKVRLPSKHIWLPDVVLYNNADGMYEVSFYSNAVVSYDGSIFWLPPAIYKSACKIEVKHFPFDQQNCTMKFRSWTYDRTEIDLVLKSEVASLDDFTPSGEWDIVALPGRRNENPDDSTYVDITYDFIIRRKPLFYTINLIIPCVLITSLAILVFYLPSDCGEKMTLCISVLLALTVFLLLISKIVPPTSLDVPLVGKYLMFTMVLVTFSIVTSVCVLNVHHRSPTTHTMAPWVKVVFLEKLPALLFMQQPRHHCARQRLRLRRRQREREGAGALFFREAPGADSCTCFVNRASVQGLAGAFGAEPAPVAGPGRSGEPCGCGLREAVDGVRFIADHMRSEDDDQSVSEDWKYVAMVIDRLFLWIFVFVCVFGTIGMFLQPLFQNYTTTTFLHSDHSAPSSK

[3] = target: muscle (α1)2βγδ nAChR subtype (Torpedo marmorata, UniProt P02711+Q6S3H8+Q6S3H9); conditions: antagonistic activity, TEVC; value (95% CI); read-out: nAChR subtype (nM; 95% CI) α12β1γδ (Torpedo); cited from earlier work
Chain of muscle (α1)2βγδ nAChR subtype (P02711 25-461): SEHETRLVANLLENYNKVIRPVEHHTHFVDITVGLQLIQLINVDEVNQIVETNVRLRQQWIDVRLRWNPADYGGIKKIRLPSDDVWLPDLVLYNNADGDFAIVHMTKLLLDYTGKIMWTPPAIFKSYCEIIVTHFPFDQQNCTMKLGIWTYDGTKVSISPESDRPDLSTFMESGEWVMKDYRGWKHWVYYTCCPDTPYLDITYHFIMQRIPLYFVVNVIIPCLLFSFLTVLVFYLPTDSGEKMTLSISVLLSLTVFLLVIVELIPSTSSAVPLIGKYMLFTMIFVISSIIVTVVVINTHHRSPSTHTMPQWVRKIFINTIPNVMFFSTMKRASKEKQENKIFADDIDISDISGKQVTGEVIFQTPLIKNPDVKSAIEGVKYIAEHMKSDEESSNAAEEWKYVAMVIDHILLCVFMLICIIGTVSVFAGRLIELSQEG
Chain of muscle (α1)2βγδ nAChR subtype (Q6S3H9 entry or part of it): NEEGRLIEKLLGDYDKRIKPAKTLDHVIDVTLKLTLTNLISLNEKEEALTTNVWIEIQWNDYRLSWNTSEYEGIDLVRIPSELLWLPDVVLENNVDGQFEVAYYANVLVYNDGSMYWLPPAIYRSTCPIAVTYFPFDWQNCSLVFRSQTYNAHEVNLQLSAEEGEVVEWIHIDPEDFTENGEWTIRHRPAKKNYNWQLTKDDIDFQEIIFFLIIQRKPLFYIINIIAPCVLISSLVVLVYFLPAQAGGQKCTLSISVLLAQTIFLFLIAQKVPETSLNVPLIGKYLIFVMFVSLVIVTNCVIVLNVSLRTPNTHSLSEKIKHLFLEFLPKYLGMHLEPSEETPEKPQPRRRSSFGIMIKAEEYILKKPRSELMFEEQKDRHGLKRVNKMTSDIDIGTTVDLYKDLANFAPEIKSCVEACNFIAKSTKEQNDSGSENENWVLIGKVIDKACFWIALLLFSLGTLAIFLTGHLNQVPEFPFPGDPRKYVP
Chain of muscle (α1)2βγδ nAChR subtype (Q6S3H8 entry or part of it): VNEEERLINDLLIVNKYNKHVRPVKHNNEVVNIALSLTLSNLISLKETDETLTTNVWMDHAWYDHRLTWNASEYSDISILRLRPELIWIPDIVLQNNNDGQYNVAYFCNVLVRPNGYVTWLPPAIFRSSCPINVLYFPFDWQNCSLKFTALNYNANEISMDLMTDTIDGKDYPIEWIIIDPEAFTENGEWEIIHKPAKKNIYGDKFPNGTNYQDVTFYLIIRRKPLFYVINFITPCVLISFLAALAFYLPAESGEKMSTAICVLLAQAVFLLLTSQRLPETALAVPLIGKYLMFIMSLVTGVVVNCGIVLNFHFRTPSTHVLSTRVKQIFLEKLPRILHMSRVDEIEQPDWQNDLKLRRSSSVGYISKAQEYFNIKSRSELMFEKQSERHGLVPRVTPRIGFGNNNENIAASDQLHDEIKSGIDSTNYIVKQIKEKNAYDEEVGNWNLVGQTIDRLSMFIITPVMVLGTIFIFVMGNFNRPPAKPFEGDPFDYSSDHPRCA
Chain of muscle (α1)2βγδ nAChR subtype (Q6S3I0 entry or part of it, further chain): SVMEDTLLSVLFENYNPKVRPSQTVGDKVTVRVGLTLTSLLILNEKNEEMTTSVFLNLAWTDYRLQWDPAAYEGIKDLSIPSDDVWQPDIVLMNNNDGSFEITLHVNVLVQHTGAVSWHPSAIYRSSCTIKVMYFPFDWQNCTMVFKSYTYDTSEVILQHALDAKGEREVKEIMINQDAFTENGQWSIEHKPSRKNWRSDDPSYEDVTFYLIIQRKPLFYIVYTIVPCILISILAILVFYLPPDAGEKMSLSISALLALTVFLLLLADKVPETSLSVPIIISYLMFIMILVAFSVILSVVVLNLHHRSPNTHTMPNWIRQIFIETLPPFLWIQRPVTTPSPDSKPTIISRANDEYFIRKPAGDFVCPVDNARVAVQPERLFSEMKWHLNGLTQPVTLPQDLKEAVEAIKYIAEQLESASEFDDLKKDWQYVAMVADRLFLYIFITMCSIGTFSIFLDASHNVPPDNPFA

[4] = test system: cancer cell lines; conditions: literature (Tang et al. 2023; Fribley et al. 2019); cited from earlier work
[5] = target: T1, human α7 nAChR subtype; experiment: Two-electrode voltage clamp electrophysiology on Xenopus laevis oocytes expressing the α7 nAChR; assay type: cell-based
Excerpt: The emerging cyclic imines toxins (CiTXs) of global distribution across coastal environments that are produced by dinoflagellates move fast up the human food chain through shellfish. The CiTX family includes 44 compounds: 7 gymnodimines (A-E, 12-methylgymnodimine and 16-desmethyl gymnodimine D), 16 spirolides (A-D, G-I, 13-desmethyl spirolide-C, 27-Hydroxy-13-desmethyl spirolide-C, 13,19-didesmethyl spirolide-C, 20-hydroxy-13,19-didesmethyl spirolide- C, 27-hydroxy-13,19-spirolide-C, 27-Oxo-13,19-didesmethyl spirolide-C, 13-desmethyl spirolide-D, 20-hydroxy-13,19-didesmethyl spirolide-D and 20-methyl spirolide-G), 8 pinnatoxins (A-H), 3 pteriatoxins (A-C), 6 prorocentrolides (A-B, 4- hydroxyprorocentrolide, 9,51-dihydro prorocentrolide, 30-sulfate prorocentrolide and 14-O-acetyl-4-hydroxyprorocentrolide), 1 spiroprorocentrimine, 2 portimines (A and B), and 1 kabirimine, (Aráoz et al. (2020) Cyclic imine toxins survey in coastal european shellfish samples: Bioaccumulation and mode of action of 28-O-palmitoyl ester of pinnatoxin-G. First report of portimine-A bioaccumulation. Harmful Algae, 98 [1]). The spiroimine moiety is the major feature characterizing cyclic imine toxins. The exception to this rule is prorocentrolides in which a hexahydroisoquinoline group replaces the spiroimine motif, (Torigoe et al. (1988) Prorocentrolide, a toxic nitrogenous macrocycle from a marine dinoflagellate, Prorocentrum-lima. Journal of the American Chemical Society, 110:7876-7877 [2]). Portimines display a 5-membered cyclic imine ring; gymnodimines, prorocentrolides, spiroprorocentrimines and kabirimine present a 6-membered imine ring, while spirolides, pinnatoxins and pteriatoxins display a 7-membered imine ring. Cyclic imine toxins are fast acting neurotoxins that, when administered intraperitoneally or by gavage at lethal doses, kill mice by respiratory arrest within minutes following blockade of neuromuscular nicotinic acetylcholine receptors (nAChR). The mode of action of several cyclic imines on nAChRs has been characterized, namely: gymnodimine-A, 13- desmethyl spirolide- C, 13,19-didesmethyl spirolide-C, 20-methyl spirolide-G, pinnatoxin-A, pinnatoxin-G, prorocentrolide-A and portimine, (Lamoise et al. (2017) Physico-chemical and functional characterization of portimine purified from Vulcanodinium rugosum strain IFR-VRU-01. In "Marine and Fresh-Water Harmful Algae". Proceedings of the 17th International Conference on Harmful Algae (Proença, L.A.O. and Hallegraeff, G. eds) pp. 126-129 ISSHA and IOC/UNESCO, Florianapolis; Molgó et al. (2017) Cyclic imine toxins from dinoflagellates: a growing family of potent antagonists of the nicotinic acetylcholine receptors. Journal of Neurochemistry, 142:41-51 [4]). They are potent antagonists of muscular and neuronal nicotinic acetylcholine receptors with pinnatoxin-A displaying picomolar affinities towards the α7 nicotinic acetylcholine receptor subtype (Aráoz et al. (2011) Total synthesis of pinnatoxins A and G and revision of the mode of action of pinnatoxin A. Journal of the American Chemical Society 133(27):10499-10511 [5]). In contrast, prorocentrolide and portimine show micromolar affinities towards the α7 nicotinic acetylcholine receptor subtype (Lamoise et al. (2017), Stivala et al. (2015) Synthesis and biology of cyclic imine toxins, an emerging class of potent, globally distributed marine toxins. Natural Product Reports, 32(3):411-435 [6]) (Table1). Table 1. Antagonistic activity of CiTX (Two-Electrodes Voltage Clamp electrophysiology).
• Figure 1 represents the chemical structure of ingrilimine according to compound (Illa) formula. • Figure 2 represents the cytotoxic activity of ingrilimine. A2780 ovarian and HT29 colorectal carcinoma cells were grown in RPMI 1640 supplemented with 10% fetal calf serum (FCS) and 1% glutamine. […]

[6] = test system: P338 leukemia cell line; conditions: mouse P338 leukemia cell line; cited from earlier work
[7] = test system: 3T3, L929, 4T1 and Caco-2 cells; conditions: normal cell lines 3T3 and L929, tumor cell line 4T1, Caco-2 cells; cited from earlier work

T1 sequence (P36544 23-502): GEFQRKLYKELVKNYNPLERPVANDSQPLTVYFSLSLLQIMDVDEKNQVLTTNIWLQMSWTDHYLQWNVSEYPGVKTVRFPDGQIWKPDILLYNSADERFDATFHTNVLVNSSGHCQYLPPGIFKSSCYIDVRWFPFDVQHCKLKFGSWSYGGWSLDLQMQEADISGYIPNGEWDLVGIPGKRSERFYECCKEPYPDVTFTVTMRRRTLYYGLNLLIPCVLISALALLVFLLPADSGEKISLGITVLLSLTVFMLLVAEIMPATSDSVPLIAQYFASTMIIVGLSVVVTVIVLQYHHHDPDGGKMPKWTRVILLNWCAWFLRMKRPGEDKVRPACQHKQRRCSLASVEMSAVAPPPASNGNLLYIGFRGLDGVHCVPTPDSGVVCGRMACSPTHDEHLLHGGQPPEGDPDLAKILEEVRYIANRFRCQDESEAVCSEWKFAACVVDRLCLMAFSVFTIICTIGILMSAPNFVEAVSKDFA

| Compound | IC50 [1] [nM] | IC50 [2] [nM] | IC50 [3] [nM] | other results |
| --- | --- | --- | --- | --- |
| C=C1CCCC2=NCC(C)C(C)CC23CCC(C2C=C(C)C(=O)O2)=C(C)C3/C=C(\C)C(O)CC2CCC3(CCC4(OC(CCC4O)C1)O3)O2 (stereo not shown) [13,19-didesmethyl spirolide-C] | 0.25 | 6.26 | 0.2 | – |
| 28-O-palmitoyl ester of pinnatoxin-G [Palmitate PnTX-G] | – | – | 0.97 | – |
| portimine B | – | – | – | cytotoxic activities, order of magnitude [4]: ~10^-7 M |
| C=C1CCCC2=NC[C@H](C)[C@@H](C)C[C@@]23CCC(C(=O)O)=C[C@@H]3[C@@H]2O[C@]3(C[C@H]4CCC[C@@]5(CC[C@@]6(O[C@@H](CC[C@@]6(C)O)C1)O5)O4)C[C@@H](C)[C@@H](O)[C@H]2O3 [Pinnatoxine-A] | 0.107 | 30.4 | 5.53 | antagonistic activity against human α7 nAChR, times more potent than towards muscle-type (α1)2β1γδ nAChR ([5]; selectivity α7 vs muscle-type): 50 times; antagonistic activity against human α7 nAChR, times more potent than against the human neuronal α4β2 nAChR subtype ([5]; selectivity α7 vs α4β2): ~ 300 times |
| C=C1CCCC2=NCC(C)C(C)CC23CCC(C2C=C(C)C(=O)O2)=C(C)C3/C=C(/C)C(O)CC2CCC3(CCC4(OC(CCC4(C)O)C1)O3)O2 (stereo not shown) [13-desmethyl spirolide-C] | 0.18 | 3.9 | 0.51 | – |
| C=C1CCCC2=NC[C@H](C)[C@@H](C)C[C@@]23CCC([C@@H]2CCC(=O)O2)=C[C@@H]3[C@@H]2O[C@@]3(C[C@@H](C)C[C@H]2O3)C[C@@H]2O[C@]3(CC[C@@]4(O[C@@H](CC[C@@]4(C)O)C1)O3)C[C@H](C)[C@@H]2O [pinnatoxin-F] | – | – | – | IC50 [6]: > 1000 nM |
| C=CC1=C[C@@H]2[C@@H]3O[C@]4(C[C@H]5CCC[C@@]6(CC[C@@]7(O[C@@H](CC[C@@]7(C)O)CC(=C)CCCC7=NC[C@H](C)[C@@H](C)C[C@@]72CC1)O6)O5)C[C@@H](C)[C@@H](O)[C@H]3O4 [Pinnatoxine-G] | 5.06 | 4.9 | 3.82 | – |
| C=C1CCCC2OC(CC3=CC4/C(C)=C/CC(C)CC(/C=C(\C)C(O)C5CC(O)C(O)C(CCC(O)/C=C/C(C)=C/CCC6=NCCC(C3)C64C)O5)OC(=O)CC3CC(O)C(O3)C(O)C1)CC(O)C2O (stereo not shown) [Prorocentrolide] | 1660 | – | 186 | – |
| Gymnodimine-A | – | 0.9 | 2.8 | cytotoxic, concentration region [7]: micromolar region |
| 20-methyl spirolide-G | 0.48 | 2.1 | 0.36 | – |
